ChEMBL document CHEMBL1146482, “Natural products from endophytic microorganisms” (J Nat Prod, 2004)
pIC50: −log10 of the molar value. Converted amounts (≈) assume the structure as drawn.

Key:
Bacillus anthracis = test: Antimicrobial activity against Bacillus anthracis; type: functional
Plasmodium falciparum = test: Antiplasmodial activity against Plasmodium falciparum; type: functional; settings: read-out: LD50 (the source's name)
Lymphocyte = test: Immunosuppressive activity in lymphocytes by mixed lymphocyte reaction assay; type: functional, cell-based
Thymocyte = test: Immunosuppressive activity in thymocytes by thymocyte proliferation assay; type: functional, cell-based

SMILES | MIC (Bacillus anthracis) [µg/mL] | LC50 (Plasmodium falciparum) [µg/mL] | pIC50 (Lymphocyte) | pIC50 (Thymocyte)
CS[C@H]1SC[C@H]2C(=O)N(C)[C@@H](C(C)C)C(=O)OC[C@@H](NC(=O)c3cnc4ccccc4n3)C(=O)N[C@@H](C)C(=O)N(C)[C@@H]1C(=O)N(C)[C@@H](C(C)C)C(=O)OC[C@@H](NC(=O)c1cnc3ccccc3n1)C(=O)N[C@@H](C)C(=O)N2C [ECHINOMYCIN] | 1 (≈ 0.908 µM) | 0.007 (≈ 0.00636 µM) |  | 
C=C1CC[C@H]2[C@]3(C)C[C@@H](C=C(C)C)O[C@H]3CC[C@]2(C)[C@@H]1Cc1c(O)c(C)c(C)oc1=O [SUBGLUTINOL A] |  |  | 7.00 | 7.00
C=C1CC[C@H]2[C@]3(C)C[C@H](C=C(C)C)O[C@H]3CC[C@]2(C)[C@@H]1Cc1c(O)c(C)c(C)oc1=O [SUBGLUTINOL B] |  |  | 7.00 | 7.00
